EC50 data for 20 molecules are collected here from patent US8574563B2 (Bristol-Myers Squibb Company, priority 2006, dated 2013).

For orientation: EC50 means the concentration that produces a half-maximal response.

This assay has as its system HCV 1b-377-neo replicon cells. Put plainly: HCV replicon assay, HCV 1b-377-neo replicon cells (1b FRET). In kind it is cell-based, Hepatitis C virus genotype 1b. The conditions noted are these: HCV 1b-377-neo replicon cells, HCV 1b genotype, read-out: EC50 range against HCV 1b (Table 2, Range). Summed up: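 FRET-based replicon assay in HCV 1b-377-neo cells, including a comparison line carrying the NS5A Y2065H mutation that confers resistance to a reference compound.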
On the technique in general: In antiviral work, replicon cells carry a viral genome segment that copies itself.

Read-outs that look alike come from different tables or passages of the source.

As to `COC(=O)N[C@@H](C(=O)N1CCC[C@H]1c1ncc(-c2ccc(-c3ccc(-c4cnc([C@@H]5CCCN5C(=O)[C@@H](c5ccccc5)N(C)C)[nH]4)cc3)cc2)[nH]1)c1ccccc1` [Example 42, methyl ((1R)-2-((2S)-2-(5-(4′-(2-((2S)-1-((2R)-2-(dimethylamino)-2-phenylacetyl)-2-pyrrolidinyl)-1H-imidazol-5-yl)-4-biphenylyl)-1H-imidazol-2-yl)-1-pyrrolidinyl)-2-oxo-1-phenylethyl)carbamate], the EC50 (Hepatitis C virus) fell in the range of 1 to 999 pM.

In the case of `COC(=O)N[C@@H](C(=O)N1CCC[C@H]1c1ncc(-c2ccc(-c3ccc(-c4cnc([C@@H]5CCCN5C(=O)[C@H](O)c5ccccc5)[nH]4)cc3)cc2)[nH]1)c1ccccc1` [Example 43, methyl ((1R)-2-((2S)-2-(5-(4′-(2-((2S)-1-((2R)-2-hydroxy-2-phenylacetyl)-2-pyrrolidinyl)-1H-imidazol-5-yl)-4-biphenylyl)-1H-imidazol-2-yl)-1-pyrrolidinyl)-2-oxo-1-phenylethyl)carbamate], where the note is “Hepatitis C virus”, the EC50 is 1 to 999 pM.

With `COC(=O)N[C@@H](C(=O)N1CCC[C@H]1c1ncc(-c2ccc(-c3ccc(-c4cnc([C@@H]5CCCN5C(=O)C5CCN(C)CC5)[nH]4)cc3)cc2)[nH]1)c1ccccc1` [Example 44, methyl ((1R)-2-((2S)-2-(5-(4′-(2-((2S)-1-((1-methyl-4-piperidinyl)carbonyl)-2-pyrrolidinyl)-1H-imidazol-5-yl)-4-biphenylyl)-1H-imidazol-2-yl)-1-pyrrolidinyl)-2-oxo-1-phenylethyl)carbamate], for the setting “Hepatitis C virus”, the EC50 was 1 to 999 pM.

As to `COC(=O)N[C@@H](C(=O)N1CCC[C@H]1c1ncc(-c2ccc(-c3ccc(-c4cnc([C@@H]5CCCN5C(=O)C5CCOCC5)[nH]4)cc3)cc2)[nH]1)c1ccccc1` [Example 45, methyl ((1R)-2-oxo-1-phenyl-2-((2S)-2-(5-(4′-(2-((2S)-1-(tetrahydro-2H-pyran-4-ylcarbonyl)-2-pyrrolidinyl)-1H-imidazol-5-yl)-4-biphenylyl)-1H-imidazol-2-yl)-1-pyrrolidinyl)ethyl)carbamate], the EC50 (Hepatitis C virus) fell in the range of 1 to 999 pM.

In the case of `COC(=O)N[C@@H](C(=O)N1CCC[C@H]1c1ncc(-c2ccc(-c3ccc(-c4cnc([C@@H]5CCCN5C(=O)Cc5ccccn5)[nH]4)cc3)cc2)[nH]1)c1ccccc1` [Example 46, methyl ((1R)-2-oxo-1-phenyl-2-((2S)-2-(5-(4′-(2-((2S)-1-(2-pyridinylacetyl)-2-pyrrolidinyl)-1H-imidazol-5-yl)-4-biphenylyl)-1H-imidazol-2-yl)-1-pyrrolidinyl)ethyl)carbamate], the concentration giving a half-maximal response (EC50) lay in the range of 1 to 999 pM.

As to `COC(=O)N[C@@H](C(=O)N1CCC[C@H]1c1ncc(-c2ccc(-c3ccc(-c4cnc([C@@H]5CCCN5C(=O)Cc5cccnc5)[nH]4)cc3)cc2)[nH]1)c1ccccc1` [Example 47, methyl ((1R)-2-oxo-1-phenyl-2-((2S)-2-(5-(4′-(2-((2S)-1-(3-pyridinylacetyl)-2-pyrrolidinyl)-1H-imidazol-5-yl)-4-biphenylyl)-1H-imidazol-2-yl)-1-pyrrolidinyl)ethyl)carbamate], the EC50 (Hepatitis C virus) lay within 1 to 999 pM.

`COC(=O)N[C@@H](C(=O)N1CCC[C@H]1c1ncc(-c2ccc(-c3ccc(-c4cnc([C@@H]5CCCN5C(=O)Cc5ccncc5)[nH]4)cc3)cc2)[nH]1)c1ccccc1` [Example 48, methyl ((1R)-2-oxo-1-phenyl-2-((2S)-2-(5-(4′-(2-((2S)-1-(4-pyridinylacetyl)-2-pyrrolidinyl)-1H-imidazol-5-yl)-4-biphenylyl)-1H-imidazol-2-yl)-1-pyrrolidinyl)ethyl)carbamate]: the EC50 (Hepatitis C virus) lay in the range of 1 to 999 pM.

For the molecule `COC(=O)N[C@@H](C(=O)N1CCC[C@H]1c1ncc(-c2ccc(-c3ccc(-c4cnc([C@@H]5CCCN5C(=O)c5cncn5C)[nH]4)cc3)cc2)[nH]1)c1ccccc1` [Example 49, methyl ((1R)-2-((2S)-2-(5-(4′-(2-((2S)-1-((1-methyl-1H-imidazol-5-yl)carbonyl)-2-pyrrolidinyl)-1H-imidazol-5-yl)-4-biphenylyl)-1H-imidazol-2-yl)-1-pyrrolidinyl)-2-oxo-1-phenylethyl)carbamate], where the note is “Hepatitis C virus”, the EC50 lay in the range of 1 to 999 pM.

As for `COC(=O)N[C@@H](C(=O)N1CCC[C@H]1c1ncc(-c2ccc(-c3ccc(-c4cnc([C@@H]5CCCN5C(=O)N(C)C)[nH]4)cc3)cc2)[nH]1)c1ccccc1` [Example 50, methyl ((1R)-2-((2S)-2-(5-(4′-(2-((2S)-1-(dimethylcarbamoyl)-2-pyrrolidinyl)-1H-imidazol-5-yl)-4-biphenylyl)-1H-imidazol-2-yl)-1-pyrrolidinyl)-2-oxo-1-phenylethyl)carbamate], the EC50 (Hepatitis C virus) lay in the range of 100000 to 999000 pM.

Take `COC(=O)N[C@@H](C(=O)N1CCC[C@H]1c1ncc(-c2ccc(-c3ccc(-c4cnc([C@@H]5CCCN5C(=O)[C@H]5CCCN5C)[nH]4)cc3)cc2)[nH]1)c1ccccc1` [Example 51, methyl ((1R)-2-((2S)-2-(5-(4′-(2-((2S)-1-(1-methyl-D-prolyl)-2-pyrrolidinyl)-1H-imidazol-5-yl)-4-biphenylyl)-1H-imidazol-2-yl)-1-pyrrolidinyl)-2-oxo-1-phenylethyl)carbamate]: the EC50 (Hepatitis C virus) lay in the range of 1 to 999 pM.

Take `COC(=O)N[C@@H](C(=O)N1CCC[C@H]1c1ncc(-c2ccc(-c3ccc(-c4cnc([C@@H]5CCCN5C(=O)[C@@H]5CCCN5C)[nH]4)cc3)cc2)[nH]1)c1ccccc1` [Example 52, methyl ((1R)-2-((2S)-2-(5-(4′-(2-((2S)-1-(1-methyl-L-propyl)-2-pyrrolidinyl)-1H-imidazol-5-yl)-4-biphenylyl)-1H-imidazol-2-yl)-1-pyrrolidinyl)-2-oxo-1-phenylethyl)carbamate]: the EC50 fell in the range of 1 to 999 pM.

On to `COC(=O)N[C@@H](C(=O)N1CCC[C@H]1c1ncc(-c2ccc(-c3ccc(-c4cnc([C@@H]5CCCN5C(=O)[C@@H](C)NC(C)=O)[nH]4)cc3)cc2)[nH]1)c1ccccc1` [Example 53, methyl ((1R)-2-((2S)-2-(5-(4′-(2-((2S)-1-(N-acetyl-D-alanyl)-2-pyrrolidinyl)-1H-imidazol-5-yl)-4-biphenylyl)-1H-imidazol-2-yl)-1-pyrrolidinyl)-2-oxo-1-phenylethyl)carbamate], for which the EC50 (Hepatitis C virus) lay in the range of 1 to 999 pM.

With `COC(=O)N[C@@H](C(=O)N1CCC[C@H]1c1ncc(-c2ccc(-c3ccc(-c4cnc([C@@H]5CCCN5C(=O)[C@H](C)NC(C)=O)[nH]4)cc3)cc2)[nH]1)c1ccccc1` [Example 54, methyl ((1R)-2-((2S)-2-(5-(4′-(2-((2S)-1-(N-acetyl-L-ananyl)-2-pyrrolidinyl)-1H-imidazol-5-yl)-4-biphenylyl)-1H-imidazol-2-yl)-1-pyrrolidinyl)-2-oxo-1-phenylethyl)carbamate], the EC50 was 1 to 999 pM.

`COCC(=O)N1CCC[C@H]1c1ncc(-c2ccc(-c3ccc(-c4cnc([C@@H]5CCCN5C(=O)[C@H](NC(=O)OC)c5ccccc5)[nH]4)cc3)cc2)[nH]1` [Example 55, methyl ((1R)-2-((2S)-2-(5-(4′-(2-((2S)-1-(methoxyacetyl)-2-pyrrolidinyl)-1H-imidazol-5-yl)-4-biphenylyl)-1H-imidazol-2-yl)-1-pyrrolidinyl)-2-oxo-1-phenylethyl)carbamate]: where the note is “Hepatitis C virus”, the EC50 was 1 to 999 pM.

On to `CC[C@@H](O)C(=O)N1CCC[C@H]1c1ncc(-c2ccc(-c3ccc(-c4cnc([C@@H]5CCCN5C(=O)[C@H](NC(=O)OC)c5ccccc5)[nH]4)cc3)cc2)[nH]1` [Example 56, methyl ((1R)-2-((2S)-2-(5-(4′-(2-((2S)-1-((2R)-2-hydroxybutanoyl)-2-pyrrolidinyl)-1H-imidazol-5-yl)-4-biphenylyl)-1H-imidazol-2-yl)-1-pyrrolidinyl)-2-oxo-1-phenylethyl)carbamate], for which the EC50 (Hepatitis C virus) was 1 to 999 pM.

For the molecule `COC(=O)N[C@@H](C(=O)N1CCC[C@H]1c1ncc(-c2ccc(-c3ccc(-c4cnc([C@@H]5CCCN5C(=O)CN5CCN(C)CC5)[nH]4)cc3)cc2)[nH]1)c1ccccc1` [Example 57, methyl ((1R)-2-((2S)-2-(5-(4′-(2-((2S)-1-((4-methyl-1-piperazinyl)acetyl)-2-pyrrolidinyl)-1H-imidazol-5-yl)-4-biphenylyl)-1H-imidazol-2-yl)-1-pyrrolidinyl)-2-oxo-1-phenylethyl)carbamate], for the setting “Hepatitis C virus”, the EC50 was in the range of 1 to 999 pM.

Regarding `COC(=O)NC(C(=O)N1CCCC1c1nc(-c2ccc(-c3ccc(-c4cnc(C5CCCN5C(=O)CN5CCCC5)[nH]4)cc3)cc2)c[nH]1)c1ccccc1` [Example 58, methyl ((1R)-2-oxo-1-phenyl-2-((2S)-2-(5-(4′-(2-((2S)-1-(1-pyrrolidinylacetyl)-2-pyrrolidinyl)-1H-imidazol-5-yl)-4-biphenylyl)-1H-imidazol-2-yl)-1-pyrrolidinyl)ethyl)carbamate], the EC50 was 1 to 999 pM.

With `COC(=O)N[C@@H](C(=O)N1CCC[C@H]1c1ncc(-c2ccc(-c3ccc(-c4cnc([C@@H]5CCCN5C(=O)[C@@H]5CCCO5)[nH]4)cc3)cc2)[nH]1)c1ccccc1` [Example 59, methyl ((1R)-2-oxo-1-phenyl-2-((2S)-2-(5-(4′-(2-((2S)-1-((2S)-tetrahydro-2-furanylcarbonyl)-2-pyrrolidinyl)-1H-imidazol-5-yl)-4-biphenylyl)-1H-imidazol-2-yl)-1-pyrrolidinyl)ethyl)carbamate], for the setting “Hepatitis C virus”, the EC50 lay within 1 to 999 pM.

Consider `COC(=O)N[C@@H](C(=O)N1CCC[C@H]1c1ncc(-c2ccc(-c3ccc(-c4cnc([C@@H]5CCCN5C(=O)C5(O)CC5)[nH]4)cc3)cc2)[nH]1)c1ccccc1` [Example 60, methyl ((1R)-2-((2S)-2-(5-(4′-(2-((2S)-1-((1-hydroxycyclopropyl)carbonyl)-2-pyrrolidinyl)-1H-imidazol-5-yl)-4-biphenylyl)-1H-imidazol-2-yl)-1-pyrrolidinyl)-2-oxo-1-phenylethyl)carbamate], for which the EC50 (Hepatitis C virus) lay within 1 to 999 pM.

Take `COC(=O)N[C@@H](C(=O)N1CCC[C@H]1c1ncc(-c2ccc(-c3ccc(-c4cnc([C@@H]5CCCN5C(=O)Cc5cnc[nH]5)[nH]4)cc3)cc2)[nH]1)c1ccccc1` [Example 61, methyl ((1R)-2-((2S)-2-(5-(4′-(2-((2S)-1-(1H-imidazol-5-ylacetyl)-2-pyrrolidinyl)-1H-imidazol-5-yl)-4-biphenylyl)-1H-imidazol-2-yl)-1-pyrrolidinyl)-2-oxo-1-phenylethyl)carbamate]: the EC50 (Hepatitis C virus) was in the range of 1 to 999 pM.
